Measured values: patent publication US20240150356A1, “Pyrimidine amide compounds and use thereof” (ALPHALA CO., LTD., priority 2019, published 2024)

Each molecule was assayed on Hep3B cells (hepatocellular carcinoma cell line) (assay: In vitro MTS cell viability assay (NCI-60 methodology), Hep3B). Settings: Homo sapiens, 48 h, Table 1, MTS, 2 days drug incubation, 50% reduction vs time zero, read-out: Hep3B LC50.
Format: cell-based
In short: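 Hep3B cells given five 2-fold dilutions of compound for 2 days, with viability by MTS measured at time zero and at end. LC50 is the concentration giving a 50% fall in viable cells relative to the start of treatment, per NCI-60 formula.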

| SMILES | LC50 [µM] |
| --- | --- |
| CN(C)c1ccc(-c2nc(NC(=O)c3ccc([N+](=O)[O-])s3)c3cnn(C)c3n2)cc1 [Compound 1-10, N-(6-(4-(dimethylamino)phenyl)-1-methyl-1H-pyrazolo[3,4-d]pyrimidin-4-yl)-5-nitrothiophene-2-carboxamide] | > 5 |
| O=C(Nc1nc(-c2ccc(OC(F)(F)F)cc2)nc2c1cnn2CCO)c1ccc([N+](=O)[O-])s1 [Compound 1-28, N-(1-(2-hydroxyethyl)-6-(4-(trifluoromethoxy)phenyl)-1H-pyrazolo[3,4-d]pyrimidin-4-yl)-5-nitrothiophene-2-carboxamide] | 4.03 |

Same assay, conditions: Homo sapiens, 48 h, Table 2, MTS, 2 days drug incubation, 50% reduction vs time zero, read-out: Hep3B LC50

| SMILES | LC50 [µM] |
| --- | --- |
| Cc1csc2c(-c3cccc(OC(F)(F)F)c3)nc(NC(=O)c3ccc([N+](=O)[O-])s3)nc12 [Compound 2-7, N-(7-methyl-(3-(trifluoromethoxy)phenyl)thieno[3,2-d]pyrimidin-2-yl)-5-nitrothiophene-2-carboxamide] | 3.43 |
| Cn1ncc2c(-c3ccc(C(C)(C)C)cc3)nc(NC(=O)c3ccc([N+](=O)[O-])s3)nc21 [Compound 2-1, N-(4-(4-(tert-but)phenyl)-1-methyl-1H-pyrazolo[3,4-d]pyrimidin-6-yl)-5-nitrothiophene-2-carboxamide] | 3.13 |
| Cc1csc2c(-c3ccc(OC(F)(F)F)cc3)nc(NC(=O)c3ccc([N+](=O)[O-])s3)nc12 [Compound 2-8, N-(7-methyl-4-(4-(trifluoromethoxy)phenyl)thieno[3,2-d]pyrimidin-2-yl)-5-nitrothiophene-2-carboxamide] | 1.71 |

Same assay, conditions: Homo sapiens, 48 h, Table 3, MTS, 2 days drug incubation, 50% reduction vs time zero, read-out: Hep3B LC50

| SMILES | LC50 [µM] |
| --- | --- |
| CCn1cc2nc(-c3ccc(C(C)(C)C)cc3)nc(NC(=O)c3ccc([N+](=O)[O-])s3)c2c1 [Compound 3-11, N-(2-(4-(tert-butyl)phenyl)-6-ethyl-6H-pyrrolo[3,4-d]pyrimidin-4-yl)-5-nitrothiophene-2-carboxamide] | 7.64 |

Same assay, conditions: Homo sapiens, 48 h, Table 4, MTS, 2 days drug incubation, 50% reduction vs time zero, read-out: Hep3B LC50

| SMILES | LC50 [µM] |
| --- | --- |
| Cc1csc2c(NC(=O)c3ccc([N+](=O)[O-])s3)nc(-c3cc(C(F)(F)F)cc(C(F)(F)F)c3)nc12 [Compound 4-6, N-(2-(3,5-bis(trifluoromethyl)phenyl)-7-methylthieno[3,2-d]pyrimidin-4-yl)-5-nitrothiophene-2-carboxamide] | 0.42 |
| O=C(Nc1nc(-c2ccc(Cl)c(F)c2)nc2c(-c3ccccc3)csc12)c1ccc([N+](=O)[O-])s1 [Compound 4-16, N-(2-(4-chloro-3-fluorophenyl)-7-phenylthieno[3,2-d]pyrimidin-4-yl)-5-nitrothiophene-2-carboxamide] | 0.56 |

Same assay, conditions: Homo sapiens, 48 h, Table 5, MTS, 2 days drug incubation, 50% reduction vs time zero, read-out: Hep3B LC50

| SMILES | LC50 [µM] |
| --- | --- |
| O=C(Nc1nc(-c2cc(C(F)(F)F)ccc2F)nc2c1cnn2-c1ccccc1)c1ccc([N+](=O)[O-])s1 [Compound 5-50, N-(6-(2-fluoro-5-(trifluoromethyl)phenyl)-1-phenyl-1H-pyrazolo[3,4-d]pyrimidin-4-yl)-5-nitrothiophene-2-carboxamide] | 0.35 |
| Cc1noc(C)c1-c1nc(NC(=O)c2ccc([N+](=O)[O-])s2)c2cnn(-c3ccccc3)c2n1 [Compound 5-21, N-(6-(3,5-dimethylisoxazol-4-yl)-1-phenyl-1H-pyrazolo[3,4-d]pyrimidin-4-yl)-5-nitrothiophene-2-carboxamide] | 0.76 |
| O=C(Nc1nc(Oc2ccc(F)cc2)nc2c1cnn2-c1ccccc1)c1ccc([N+](=O)[O-])s1 [Compound 5-14, N-(6-(4-fluorophenoxy)-1-phenyl-1H-pyrazolo[3,4-d]pyrimidin-4-yl)-5-nitrothiophene-2-carboxamide] | > 5 |

Same assay, conditions: Homo sapiens, 48 h, Table 6, MTS, 2 days drug incubation, 50% reduction vs time zero, read-out: Hep3B LC50

| SMILES | LC50 [µM] |
| --- | --- |
| CC(C)(C)c1ccc(-n2ncc3c(NC(=O)c4ccc([N+](=O)[O-])s4)nc(N4CCC(F)(F)CC4)nc32)cc1 [Compound 6-67, N-(1(4-(tert-butyl)phenyl)-6-(4,4-difluoropiperidin-1-yl)-1H-pyrazolo[3,4-d]pyrimidin-4-yl)-5-nitrothiophene-2-carboxamide] | 0.73 |
| O=C(Nc1nc(-c2ccc(OCCO)nc2)nc2c1cnn2-c1ccc(F)cc1)c1ccc([N+](=O)[O-])s1 [Compound 6-134, N-(1-(4-fluorophenyl)-6-(6-(2-hydroxyethoxy)pyridin-3-yl)-1H-pyrazolo[3,4,d]pyrimidin-4-yl)-5-nitrothiophene-2-carboxamide] | 0.22 |
| Cc1ccc(-n2ncc3c(NC(=O)c4ccc([N+](=O)[O-])s4)nc(-c4ccc(C(F)(F)F)cc4)nc32)cc1 [Compound 6-8, 5-nitro-N-(1-(p-tolyl)-6-(4-(trifluoromethyl)phenyl)-1H-pyrazolo[3,4-d]pyrimidin-4-yl)thiophene-2-carboxamide] | 0.35 |
| O=C(Nc1nc(-c2ccc3c(c2)OCO3)nc2c1cnn2-c1ccc(Cl)cc1)c1ccc([N+](=O)[O-])s1 [Compound 6-50, N-(6-(benzo[d][1,3]dioxol-5-yl)-1(4-chlorophenyl)-1H-pyrazolo[3,4-d]pyrimidin-4-yl)-5-nitrothiophene-2-carboxamide] | 0.16 |
| O=C(Nc1nc(-c2ccc(N3CCOCC3)nc2)nc2c1cnn2-c1ccc(F)cc1)c1ccc([N+](=O)[O-])s1 [Compound 6-141, N-(1-(4-fluorophenyl)-6-(6-morpholinopyridin-3-yl)-1H-pyrazolo[3,4-d]pyrimidin-4-yl)-5-nitrothiophene-2-carboxamide] | 0.42 |
| CC(C)(C)c1ccc(-n2ncc3c(NC(=O)c4ccc([N+](=O)[O-])s4)nc(-c4nnc(C(C)(C)C)o4)nc32)cc1 [Compound 6-76, N-(6-(5-(tert-butyl)-1,3,4-oxadiazol-2-yl)-1-(4-(tert-butyl)phenyl)-1H-pyrazolo[3,4-d]pyrimidin-4-yl)-5-nitrothiophene-2-carboxamide] | 0.31 |
| CCOCCOCCOc1ccc(-c2nc(NC(=O)c3ccc([N+](=O)[O-])s3)c3cnn(-c4ccc(C)cc4)c3n2)cn1 [Compound 6-14] | 0.22 |
| O=C(Nc1nc(-c2ccc3c(c2)OCO3)nc2c1cnn2-c1ccc(F)cc1)c1ccc([N+](=O)[O-])s1 [Compound 6-124, N-(6-(benzo[d][1,3]dioxol-5-yl)-1-(4-fluorophenyl)-1H-pyrazolo[3,4-d]pyrimidin-4-yl)-5-nitrothiophene-2-carboxamide] | 0.55 |

Same assay, conditions: Homo sapiens, 48 h, Table 7, MTS, 2 days drug incubation, 50% reduction vs time zero, read-out: Hep3B LC50

| SMILES | LC50 [µM] |
| --- | --- |
| Cc1ccc(-c2nc(NC(=O)c3ccc([N+](=O)[O-])s3)c3cnn(Cc4ccccc4)c3n2)cn1 [Compound 7-17, N-(1-benzyl-6-(6-methylpyridin-3-yl)-1H-pyrazolo[3,4-d]pyrimidin-4-yl)-5-nitrothiophene-2-carboxamide] | > 1.25 |

Same assay, conditions: Homo sapiens, 48 h, Table 9, MTS, 2 days drug incubation, 50% reduction vs time zero, read-out: Hep3B LC50

| SMILES | LC50 [µM] |
| --- | --- |
| CCOCCOCCOC(=O)N1CCC(n2ncc3c(NC(=O)c4ccc([N+](=O)[O-])s4)nc(-c4cccs4)nc32)CC1 [Compound 9-10, 2-(2-ethoxyethoxy)ethyl 4-(4-(5-nitrothiophene-2-carboxamido)-6-(thiophen-2-yl)-1H-pyrazolo[3,4-d]pyrimidin-1-yl)piperidine-1-carboxylate] | > 3 |
| COCCOC(=O)N1CCC(n2ncc3c(NC(=O)c4ccc([N+](=O)[O-])s4)nc(-c4ccc(Cl)cc4)nc32)CC1 [Compound 9-12, 2-methoxyethyl 4-(6-(4-chlorophenyl)4-(5-nitrothiophene-2-carboxamido)-1H-pyrazolo[3,4-d]pyrimidin-1-yl)piperidine-1-carboxylate] | 1.86 |

Same assay, conditions: Homo sapiens, 48 h, Table 10, MTS, 2 days drug incubation, 50% reduction vs time zero, read-out: Hep3B LC50

| SMILES | LC50 [µM] |
| --- | --- |
| CC1CC(C)CC(n2ncc3c(NC(=O)c4ccc([N+](=O)[O-])s4)nc(-c4ccc(Cl)cc4F)nc32)C1 (stereo not drawn) [Compound 10-72, N-(6-(4-chloro-2-fluorophenyl)-1-(3,5-dimethylcyclohexyl)-1H-pyrazolo[3,4-d]pyrimidin-4-yl)-5-nitrothiophene-2-carboxamide] | 0.76 |
| CC1CC(C)CC(n2ncc3c(NC(=O)c4ccc([N+](=O)[O-])s4)nc(-c4ccc(Cl)nc4)nc32)C1 (stereo not drawn) [Compound 10-70, N-(6-(6-chloropyridin-3-yl)-1-(3,5-dimethylcyclohexyl)-1H-pyrazolo[3,4-d]pyrimidin-4-yl)-5-nitrothiophene-2-carboxamide] | 0.96 |
| CCOC(=O)c1ccc(-c2nc(NC(=O)c3ccc([N+](=O)[O-])s3)c3cnn(C4CCCCC4)c3n2)cc1 [Compound 10-33, ethyl 4-(1-cyclohexyl-4-(5-nitrothiophene-2-carboxamido)-1H-pyrazolo[3,4-d]pyrimidin-6-yl)benzoate] | 0.54 |
| COC(=O)c1cccc(-c2nc(NC(=O)c3ccc([N+](=O)[O-])s3)c3cnn(C4CCCCC4)c3n2)c1 [Compound 10-31, methyl 3-(1-cyclohexyl-4-(5-nitrothiophene-2-carboxamido)-1H-pyrazolo[3,4-d]pyrimidin-6-yl)benzoate] | 0.58 |
| COCc1ccc(-c2nc(NC(=O)c3ccc([N+](=O)[O-])s3)c3cnn(C4CCCCC4)c3n2)cc1 [Compound 10-30, N-(1-cyclohexyl-6-(4-(methoxymethyl)phenyl)-1H-pyrazolo[3,4-d]pyrimidin-4-yl)-5-nitrothiophene-2-carboxamide] | 0.84 |
| O=C(Nc1nc(N2CCC(F)(F)CC2)nc2c1cnn2C1CCCCC1)c1ccc([N+](=O)[O-])s1 [Compound 10-2, N-(1-cyclohexyl-6-(4,4-difluoropiperidin-1-yl)-1H-pyrazolo[3,4-d]pyrimidin-4-yl)-5-nitrothiophene-2-carboxamide] | 3.12 |
| O=C(Nc1nc(-c2ccc(Cl)cc2Cl)nc2c1cnn2C1CCCCC1)c1ccc([N+](=O)[O-])s1 [Compound 10-42] | > 1.25 |
| O=C(Nc1nc(-c2ccnc(F)c2)nc2c1cnn2C1CCCCC1)c1ccc([N+](=O)[O-])s1 [Compound 10-15, N-(1-cyclohexyl-6-(2-fluoropyridin-4-yl)-1H-pyrazolo[3,4-d]pyrimidin-4-yl)-5-nitrothiophene-2-carboxamide] | 1.17 |
